Measured values from patent US20090291977A1, “Chromane Derivatives Useful As Acid Pump Antagonists” (priority 2004, published 2009).

target: T1, Porcine gastric H+/K+-ATPase (Sus scrofa, UniProt P19156); experiment: Ion-leaky porcine gastric H+/K+-ATPase inhibition; assay type: biochemical; details: ion-leaky vesicles, 5 mM KCl, pH 6.4, 37° C., 30 minutes
T1 construct: The gastric vesicles were collected from interface on 0.25 M sucrose layer containing 7% Ficoll; from tissue; host or cells: mucous membrane of fresh porcine stomachs (gastric vesicles)
Description: The porcine gastric vesicles for Porcine gastric H^+/K^+-ATPase inhibition assays were prepared from mucous membrane in fresh porcine stomachs by homogenization with a tight-fitted polytetrafluoroethylene (Teflone®) homogenizer in 0.25 M sucrose at 4° C. The crude pellet was removed with centrifugation at 20,000 g for 30 min. Then supernatant was centrifuged at 100,000 g for 30 min. The resulting pellet was re-suspended in 0.25 M sucrose, and then subjected to density gradient centrifugation at 132,000 g for 90 min. The gastric vesicles were collected from interface on 0.25 M sucrose layer containing 7% Ficoll™ PM400(Amersham Biosciences). This procedure was performed in a cold room.
Ion-leaky porcine gastric H^+/K^+-ATPase-inhibition was measured according to the modified method described in Biochemical Pharmacology, 1988, 37, 2231-2236.
The isolated vesicles were lyophilized, and then kept in deep-freezer until use. For enzyme assay, lyophilized vesicles were reconstituted with 3 mM MgSO4 containing 40 mM Bis-tris (pH 6.4 at 37° C.).
Enzyme reaction was performed incubating 5 mM KCl, 3 mM Na2ATP, 3 mM MgSO4 and 1.0 μg of reconstituted vesicles for 30 minutes at 37° C. in a final 60 μl of reaction mixture (40 mM Bis-tris, pH 6.4) with or without the test compound. Enzyme reaction was stopped by adding 10% sodium dodecyl sulphate (SDS). Released inorganic phosphate from ATP was detected by incubation with mixture of 1 part of 35 mM ammonium molybdate tetrahydrate in 15 mM Zinc acetate hydrate and 4 parts of 10% ascorbic acid (pH 5.0), resulting in phosphomolybdate, which has optical density at 750 nm.

T1 sequence (P19156 2-1034 limits assumed): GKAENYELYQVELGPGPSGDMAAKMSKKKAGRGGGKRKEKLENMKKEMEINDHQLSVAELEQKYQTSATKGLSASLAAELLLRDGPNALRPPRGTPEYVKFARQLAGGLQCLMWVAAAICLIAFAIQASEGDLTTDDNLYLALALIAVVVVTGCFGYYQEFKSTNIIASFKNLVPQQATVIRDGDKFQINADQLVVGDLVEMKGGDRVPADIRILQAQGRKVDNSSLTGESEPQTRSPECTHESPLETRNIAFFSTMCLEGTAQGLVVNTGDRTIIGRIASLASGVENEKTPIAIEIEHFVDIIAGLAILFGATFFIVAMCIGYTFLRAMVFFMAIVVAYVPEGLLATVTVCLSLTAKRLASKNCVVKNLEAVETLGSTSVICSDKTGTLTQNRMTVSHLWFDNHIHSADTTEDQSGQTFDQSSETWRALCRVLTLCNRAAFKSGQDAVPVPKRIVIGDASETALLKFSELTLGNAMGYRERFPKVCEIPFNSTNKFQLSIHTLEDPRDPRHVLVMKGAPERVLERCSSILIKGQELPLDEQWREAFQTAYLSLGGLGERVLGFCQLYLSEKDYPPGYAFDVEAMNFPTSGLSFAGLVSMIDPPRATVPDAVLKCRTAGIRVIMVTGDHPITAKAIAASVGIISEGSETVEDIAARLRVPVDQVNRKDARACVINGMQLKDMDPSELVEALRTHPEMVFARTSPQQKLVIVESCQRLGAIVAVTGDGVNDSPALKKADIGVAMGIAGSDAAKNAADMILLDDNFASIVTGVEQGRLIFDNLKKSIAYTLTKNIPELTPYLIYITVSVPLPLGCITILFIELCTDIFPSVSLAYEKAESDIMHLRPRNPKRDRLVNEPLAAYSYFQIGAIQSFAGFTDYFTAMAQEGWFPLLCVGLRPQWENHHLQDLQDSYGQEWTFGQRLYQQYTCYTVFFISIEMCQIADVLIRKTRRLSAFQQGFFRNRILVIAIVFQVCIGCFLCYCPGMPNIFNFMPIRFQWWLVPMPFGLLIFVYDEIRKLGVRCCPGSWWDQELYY
T1 sequence (P18434 whole entry partner): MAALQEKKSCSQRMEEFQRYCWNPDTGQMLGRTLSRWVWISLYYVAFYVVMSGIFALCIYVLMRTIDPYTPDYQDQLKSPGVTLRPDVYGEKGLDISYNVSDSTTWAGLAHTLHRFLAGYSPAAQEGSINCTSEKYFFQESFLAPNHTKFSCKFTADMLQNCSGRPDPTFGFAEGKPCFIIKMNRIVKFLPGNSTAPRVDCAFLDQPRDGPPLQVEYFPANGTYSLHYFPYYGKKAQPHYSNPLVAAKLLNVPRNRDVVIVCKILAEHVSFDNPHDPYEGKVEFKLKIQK

Q: With `Cc1cccc2c1C(Nc1cc(C(=O)N(C)CCO)cn3c(C)c(C)nc13)CCO2` (single isomer, unassigned; (+)) [Example 5-3, (+)-N-(2-Hydroxyethyl)-N,2,3-trimethyl-8-[(5-methyl-3,4-dihydro-2H-chromen-4-yl)amino]imidazo[1,2-a]pyridine-6-carboxamide] as the compound, how does the IC50 read?
A: The IC50 was 93 nM.

Q: Which IC50 does the source give for `Cc1nc2c(NC3CCOc4cc(F)cc(F)c43)cc(C(=O)N(C)C)cn2c1C` (racemic) [Example 8-1, 8-[(5,7-Difluoro-3,4-dihydro-2H-chromen-4-yl)amino]-N,N,2,3-tetramethylimidazo[1,2-a]pyridine-6-carboxamide] here?
A: The IC50 was 20 nM.

Q: `Cc1nc2c(NC3CCOc4c(F)cccc43)cc(C(=O)N(C)C)cn2c1C` (single isomer, unassigned) [Example 14-2, 8-[(8-Fluoro-3,4-dihydro-2H-chromen-4-yl)amino]-N,N,2,3-tetramethylimidazo[1,2-a]pyridine-6-carboxamide] was tested. Which IC50 did it give?
A: Its IC50 is 120 nM.

Q: For “8-3,4-Dihydro-1H-isochromen-4-ylamino)-N,N,2,3-tetramethylimidazo[1,2-a]pyridine-6-carboxamide [Example 3-1]”, which IC50 is on record?
A: Its IC50 is 103 nM.

Q: How did the IC50 turn out when `Cc1nc2c(NC3CCOc4cccc(F)c43)cc(C(=O)N(C)CCO)cn2c1C` (racemic) [Example 11-1, 8-[(5-Fluoro-3,4-dihydro-2H-chromen-4-yl)amino]-N-(2-hydroxyethyl)-N,2,3-trimethylimidazo[1,2-a]pyridine-6-carboxamide] was run?
A: The IC50 was 48.6 nM.

Q: With `Cc1nc2c(NC3CCOc4c(F)cccc43)cc(C(=O)N(C)CCO)cn2c1C` (racemic) [Example 15-1, 8-[(8-Fluoro-3,4-dihydro-2H-chromen-4-yl)amino]-N-(2-hydroxyethyl)-N,2,3-trimethylimidazol[1,2-a]pyridine-6-carboxamide] as the compound, how does the IC50 read?
A: Its IC50 is 40.9 nM.

Q: Which IC50 does the source give for `Cc1nc2c(NC3COCc4ccccc43)cc(C(=O)N(C)CCO)cn2c1C` (single isomer, unassigned; (-)) [Example 4-2, (−)-8-(3,4-Dihydro-1H-isochromen-4-ylamino)-N-(2-hydroxyethyl)-N,2,3-trimethylimidazo[1,2-a]pyridine-6-carboxamide] here?
A: The IC50 was 273 nM.

test system: acid secretion in the gastric lumen-perfused rat; experiment: Inhibition of acid secretion in the gastric lumen-perfused rat; assay type: in vivo; details: Sprague-Dawley rat, pentagastrin-stimulated acid secretion, intravenous bolus or intraduodenal administration
Description: Acid secretion in the gastric lumen-perfused rat was measured according to Watanabe et al. [Watanabe K et al., J. Physiol. (Paris) 2000; 94: 111-116].
Male Sprague-Dawley rats, 8 weeks old, deprived of food for 18 hours before the experiment with free access to water, were anesthetized with urethane (1.4 g/kg, i.p.) and tracheotomized. After a middle abdominal incision, a dual polyethylene cannula was inserted into the forestomach and the stomach was perfused with saline (37° C., pH 5.0) at a rate of 1 ml/min. The acid output in the perfusate was determined at 5 minutes interval by titration with 0.02 M NaOH to pH 5.0. After the determination of basal acid secretion for 30 min, the acid secretion was stimulated by a continuous intravenous infusion of pentagastrin (16 μg/kg/h). The test compounds were administered by an intravenous bolus injection or intraduodenal administration after the stimulated acid secretion reached a plateau phase. The acid secretion was monitored after the administration.

Q: `Cc1cccc2c1C(Nc1cc(C(=O)N(C)CCO)cn3c(C)c(C)nc13)CCO2` (single isomer, unassigned; (+)) [Example 5-3, (+)-N-(2-Hydroxyethyl)-N,2,3-trimethyl-8-[(5-methyl-3,4-dihydro-2H-chromen-4-yl)amino]imidazo[1,2-a]pyridine-6-carboxamide] was tested. Which “inhibitory activity (inhibition of acid secretion)” value did it give?
A: The value was “good inhibitory activity”.
